Results published in patent US9783536B2, “Nitrogen-containing heterocyclic compound or salt thereof” (FUJIFILM Corporation, priority 2013, dated 2017).
Structures can show the parent of a compound that is named as a salt. Where two headings read alike, the source gives them in different places.

Experiments:
[1] = target: T1, human PI3Kα protein (Homo sapiens, UniProt P42336); assay: PI3Kα enzyme assay (ADP-Glo); assay type: biochemical; conditions: read-out: PI3Kα enzyme inhibitory activity
T1 construct: purchased Carna Biosciences, Inc; host or cells: baculovirus expression system
T1 sequence (P42336 whole entry): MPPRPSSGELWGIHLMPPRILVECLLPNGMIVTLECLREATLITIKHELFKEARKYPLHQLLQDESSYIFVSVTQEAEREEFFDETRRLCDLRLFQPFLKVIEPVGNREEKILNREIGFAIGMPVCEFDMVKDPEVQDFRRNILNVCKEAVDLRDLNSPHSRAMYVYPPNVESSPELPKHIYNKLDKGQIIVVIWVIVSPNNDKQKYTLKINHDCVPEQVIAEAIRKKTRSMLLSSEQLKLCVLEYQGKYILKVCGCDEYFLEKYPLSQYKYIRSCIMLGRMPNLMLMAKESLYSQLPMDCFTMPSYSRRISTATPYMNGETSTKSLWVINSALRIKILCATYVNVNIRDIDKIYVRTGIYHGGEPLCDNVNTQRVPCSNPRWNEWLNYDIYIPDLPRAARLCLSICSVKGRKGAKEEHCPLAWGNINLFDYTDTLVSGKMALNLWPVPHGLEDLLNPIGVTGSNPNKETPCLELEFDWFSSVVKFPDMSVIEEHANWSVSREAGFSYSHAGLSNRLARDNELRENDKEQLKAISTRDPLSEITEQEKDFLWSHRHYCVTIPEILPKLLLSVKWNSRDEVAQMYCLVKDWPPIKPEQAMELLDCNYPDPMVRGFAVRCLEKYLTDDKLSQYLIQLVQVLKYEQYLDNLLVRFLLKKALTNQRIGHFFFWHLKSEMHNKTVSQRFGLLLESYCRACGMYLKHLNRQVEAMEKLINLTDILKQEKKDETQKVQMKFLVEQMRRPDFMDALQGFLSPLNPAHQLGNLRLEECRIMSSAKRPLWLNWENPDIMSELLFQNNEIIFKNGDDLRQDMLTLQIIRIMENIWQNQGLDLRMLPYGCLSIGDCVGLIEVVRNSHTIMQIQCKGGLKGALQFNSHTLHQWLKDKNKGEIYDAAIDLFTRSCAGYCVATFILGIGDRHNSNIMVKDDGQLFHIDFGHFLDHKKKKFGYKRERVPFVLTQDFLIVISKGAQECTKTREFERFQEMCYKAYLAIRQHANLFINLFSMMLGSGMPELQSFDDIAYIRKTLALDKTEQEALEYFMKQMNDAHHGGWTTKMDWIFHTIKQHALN
T1 sequence (P27986 whole entry partner): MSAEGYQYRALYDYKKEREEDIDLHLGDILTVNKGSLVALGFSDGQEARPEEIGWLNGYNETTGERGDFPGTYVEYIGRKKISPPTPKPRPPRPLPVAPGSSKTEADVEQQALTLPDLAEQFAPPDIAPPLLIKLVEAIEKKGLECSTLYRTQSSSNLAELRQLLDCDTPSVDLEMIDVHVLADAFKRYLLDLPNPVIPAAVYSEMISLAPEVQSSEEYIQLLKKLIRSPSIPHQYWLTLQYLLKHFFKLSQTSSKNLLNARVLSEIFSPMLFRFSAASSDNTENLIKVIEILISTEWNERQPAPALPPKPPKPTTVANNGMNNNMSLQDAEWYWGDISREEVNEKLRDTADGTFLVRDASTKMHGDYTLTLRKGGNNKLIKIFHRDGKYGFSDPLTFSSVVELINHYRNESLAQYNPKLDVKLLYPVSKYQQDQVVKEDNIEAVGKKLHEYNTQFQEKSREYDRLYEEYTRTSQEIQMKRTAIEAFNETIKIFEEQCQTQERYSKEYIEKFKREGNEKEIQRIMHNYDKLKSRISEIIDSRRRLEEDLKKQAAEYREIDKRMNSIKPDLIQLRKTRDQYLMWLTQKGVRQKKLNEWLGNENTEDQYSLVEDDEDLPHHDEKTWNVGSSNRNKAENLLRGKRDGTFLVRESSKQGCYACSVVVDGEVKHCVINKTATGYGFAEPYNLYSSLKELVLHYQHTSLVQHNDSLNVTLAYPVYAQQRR
Method in brief: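 Biotinylated human PI3Kα (baculovirus-expressed, 4.5 nmol/L) pre-incubated 15 min with compound in Tris-HCl pH 7.5, MgCl2, BSA; reaction 60 min at 25° C with 50 μmol/L PIP2 and 100 μmol/L ATP final. ADP quantified by ADP-Glo luminescence; IC50 calculated.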

[2] = target: T2, GST fusion human ERK2 protein (Homo sapiens, UniProt P28482); assay: ERK2 enzyme assay (1); assay type: biochemical; conditions: read-out: ERK2 enzyme inhibitory activity (1)
T2 construct: purchased Carna Biosciences, Inc; host or cells: E. coli expression system
T2 sequence (P28482 whole entry, the tested form may be a part): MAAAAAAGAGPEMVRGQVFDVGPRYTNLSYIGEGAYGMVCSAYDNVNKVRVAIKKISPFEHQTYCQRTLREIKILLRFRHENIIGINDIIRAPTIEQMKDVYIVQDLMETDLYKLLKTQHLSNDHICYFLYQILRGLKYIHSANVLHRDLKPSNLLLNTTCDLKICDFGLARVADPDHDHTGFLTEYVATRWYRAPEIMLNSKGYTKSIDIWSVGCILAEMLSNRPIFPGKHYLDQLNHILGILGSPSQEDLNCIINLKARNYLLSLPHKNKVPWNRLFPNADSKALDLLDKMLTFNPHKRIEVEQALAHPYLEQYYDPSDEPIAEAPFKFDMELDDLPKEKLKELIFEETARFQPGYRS
Protocol: In an ERK2 enzyme assay, GLUTATHIONE S-TRANSFERASE (GST) FUSION HUMAN ERK2 PROTEIN (manufactured by Carna Biosciences, Inc.), which was produced by using an E. coli expression system, was used.
12 μL of a reaction liquid (2.5 nmol/L ERK2, 100 mmol/L Hepes, 10 mmol/L MgCl2, 1.5 mmol/L DTT, 0.003% Brij35, pH 7.5) including ERK2 protein and a test compound having a predetermined concentration was allowed to stand at room temperature for 15 minutes. Then, 3 μL of a mixture liquid of FL-PEPTIDE8 (5-FAM-IPTSPITTTYFFFKKK-COOH) (manufactured by Caliper Life Sciences), which is substrate peptide, and ATP (manufactured by Sigma-Aldrich Co. LLC.) was added thereto such that the final concentrations thereof became 4.25 μmol/L and 43.1 μmol/L, respectively, and an enzyme reaction was performed by allowing to stand at 25° C. for 120 minutes.
After the reaction, the enzyme reaction was stopped by adding 30 μL of a reaction stopper liquid (100 mmol/L HEPES, 11.2 mmol/L EDTA, 5.6% Brij35, pH 7.5) including a 0.5% COATING REAGENT 8 (trade name, manufactured by Perkin Elmer Inc.) thereto. Then, phosphorylated peptide and non-phosphorylated peptide were separated using LABCHIP EZ READER (trade name, manufactured by Caliper Life Sciences), and the porportion of the phosphorylated peptide was quantified.
The inhibitory activities of the compounds were evaluated using IC50 (50% inhibitory concentration). The IC50 was calculated using XLFIT (trade name, manufactured by ID Business Solutions).

[3] = 4.5 nmol/L PI3Kα, PIP2 50 μmol/L, ATP 100 μmol/L
[4] = 2.5 nmol/L ERK2, ATP 43.1 μmol/L

Row | SMILES | IC50 [1, 3] [nM] | IC50 [2, 4] [nM] | IC50 [1] [nM] | IC50 ([2]; ERK2 enzyme assay (1)) [nM]
1 | Cn1cc(-c2cnc3ccc(Nc4nnc(CCc5ccccc5)s4)nc3c2)cn1 [Example 0171, N-(7-(1-methyl-1H-pyrazol-4-yl)-1,5-naphthyridin-2-yl)-5-phenethyl-1,3,4-thiadiazole-2-amine] | 10000 to 50000 | < 1000 | – | –
2 | Cc1ccncc1Nc1cnc2ccc(Nc3nnc(C4CCCC4)s3)nc2c1 [Example 0079] | 1000 to 10000 | < 1000 | – | –
3 | CC(C)c1nnc(Nc2ccc3nccc(Nc4ccncc4)c3n2)s1 [Example 0004, N^2-(5-isopropyl-1,3,4-thiadiazol-2-yl)-N^8-(pyridin-4-yl)-1,5-naphthyridine-2,8-diamine] | < 1000 | < 1000 | – | –
4 | c1cc(Nc2cnc3ccc(Nc4nnc(C5CCCC5)s4)nc3c2)ccn1 [Example 0208] | – | – | < 1000 | < 1000
5 | c1ncc(OCCN2CCCC2)cc1Nc1cnc2ccc(Nc3nnc(C4CCCC4)s3)nc2c1 [Example 0083] | < 1000 | < 1000 | – | –
6 | CC(=O)N1CCC(Nc2cnc3ccc(Nc4nnc(C5CCCC5)s4)nc3c2)C1 (centres unmarked) [Example 0065] | 1000 to 10000 | < 1000 | – | –
7 | CN(C)Cc1nnc(Nc2ccc3ncc(-c4cnn(C)c4)cc3n2)s1 [Example 0166, 5-((Dimethylamino)methyl)-N-(7-(1-methyl-1H-pyrazol-4-yl)-1,5-naphthyridin-2-yl)-1,3,4-thiadiazole-2-amine] | 1000 to 10000 | < 1000 | – | –
8 | O=C1C=C(c2cnc3ccc(Nc4nnc(C5CCCC5)s4)nc3c2)CO1 [Example 0045, 4-(6-((5-cyclopentyl-1,3,4-thiadiazol-2-yl)amino)-1,5-naphthyridin-3-yl)furan-2(5H)-one hydrochloride] | 10000 to 50000 | < 1000 | – | –
9 | O=C(c1ccc(Nc2cnc3ccc(Nc4nnc(C5CCCC5)s4)nc3c2)cc1)N1CCOCC1 [Example 0104] | 1000 to 10000 | < 1000 | – | –
10 | CC(C)c1cnnc(Nc2ccc3ncc(-c4cnn(CCCN5CCC5)c4)cc3n2)c1 [Example 0371] | – | – | < 1000 | < 1000
11 | c1nnc(Nc2ccc3ncc(-c4cnn(CCN5CCOCC5)c4)cc3n2)s1 [Example 0002] | < 1000 | < 1000 | – | –
12 | CC(C)c1cnnc(Nc2ccc3ncc(-c4cnn(Cc5cccnc5)c4)cc3n2)c1 [Example 0376] | – | – | < 1000 | < 1000
13 | COc1ccccc1-c1ccnc2ccc(Nc3nnc(C(C)C)s3)nc12 [Example 0270] | – | – | < 1000 | < 1000
14 | CCc1cnnc(Nc2ccc3ncc(-c4cnn(CCCN5CCOCC5)c4)cc3n2)c1 [Example 0178, N-(5-ethylpyridazin-3-yl)-7-(1-(3-morpholinopropyl)-1H-pyrazol-4-yl)-1,5-naphthyridine-2-amine] | < 1000 | < 1000 | – | –
15 | CCOC(=O)C1CCN(c2cnc3ccc(Nc4nnc(C5CCCC5)s4)nc3c2)CC1 [Example 0057] | 10000 to 50000 | 1000 to 10000 | – | –
16 | CC(C)c1nnc(Nc2ccc3nccc(-c4cnn(CCN5CCOCC5)c4)c3n2)s1 [Example 0274] | – | – | < 1000 | 1000 to 10000
17 | c1cc(Nc2cnc3ccc(Nc4nnc(C5CCCC5)s4)nc3c2)ccc1CN1CCOCC1 [Example 0221, N^2-(5-cyclopentyl-1,3,4-thiadiazol-2-yl)-N^7-(4-(morpholinomethyl)phenyl)-1,5-naphthyridine-2,7-diamine] | – | – | < 1000 | < 1000
18 | CC(C)c1cnc(Nc2ccc3ncc(-c4cnn(C)c4)cc3n2)s1 [Example 0123, 5-isopropyl-N-(7-(1-methyl-1H-pyrazol-4-yl)-1,5-naphthyridin-2-yl)thiazole-2-amine] | < 1000 | < 1000 | – | –

Row | SMILES | IC50 [1, 3] [nM] | IC50 [2, 4] [nM] | IC50 [1] [nM] | IC50 ([2]; ERK2 enzyme assay (1)) [nM]
19 | CC(C)c1nnc(Nc2ccc3nccc(Nc4ccccc4)c3n2)s1 [Example 0009] | 1000 to 10000 | 1000 to 10000 | – | –
20 | CS(=O)(=O)N1CCCC(Nc2cnc3ccc(Nc4nnc(C5CCCC5)s4)nc3c2)C1 (centres unmarked) [Example 0109] | < 1000 | 1000 to 10000 | – | –
21 | CN(C)S(=O)(=O)c1nnc(Nc2ccc3ncc(-c4cnn(C)c4)cc3n2)s1 [Example 0193, N,N-dimethyl-5-((7-(1-methyl-1H-pyrazol-4-yl)-1,5-naphthyridin-2-yl)amino)-1,3,4-thiadiazole-2-sulfonamide] | < 1000 | < 1000 | – | –
22 | CN1CCN(c2cnc3ccc(Nc4nnc(C5CCCC5)s4)nc3c2)CCC1=O [Example 0064, 1-(6-((5-cyclopentyl-1,3,4-thiadiazol-2-yl)amino)-1,5-naphthyridin-3-yl)-4-methyl-1,4-diazepan-5-one hydrochloride] | 1000 to 10000 | < 1000 | – | –
23 | OC1CCN(c2cnc3ccc(Nc4nnc(C5CCCC5)s4)nc3c2)CC1 [Example 0051] | 1000 to 10000 | < 1000 | – | –
24 | c1cncc(Oc2cnc3ccc(Nc4nnc(C5CCCC5)s4)nc3c2)c1 [Example 0044, 5-cyclopentyl-N-(7-((pyridin-3-yl)oxy)-1,5-naphthyridin-2-yl)-1,3,4-thiadiazole-2-amine hydrochloride] | – | 1000 to 10000 | – | –
25 | Cn1cc(-c2cnc3ccc(Nc4nnc(C(N)=O)s4)nc3c2)cn1 [Example 0168, 5-((7-(1-Methyl-1H-pyrazol-4-yl)-1,5-naphthyridin-2-yl)amino)-1,3,4-thiadiazole-2-carboxamide] | – | < 1000 | – | –
26 | FC(F)(F)CN1CCC(n2cc(-c3cnc4ccc(Nc5nnc(C6CCCC6)s5)nc4c3)cn2)CC1 [Example 0340, 5-cyclopentyl-N-(7-(1-(1-(2,2,2-trifluoroethyl)piperidin-4-yl)-1H-pyrazol-4-yl)-1,5-naphthyridin-2-yl)-1,3,4-thiadiazole-2-amine] | – | – | – | < 1000
27 | CC(C)c1cnnc(Nc2ccc3ncc(-c4ccccc4)cc3n2)c1 [Example 0408] | – | – | – | < 1000
28 | Cn1cc(-c2cnc3ccc(Nc4nnc(C5CCC5)s4)nc3c2)cn1 [Example 0198, 5-Cyclobutyl-N-(7-(1-methyl-1H-pyrazol-4-yl)-1,5-naphthyridin-2-yl)-1,3,4-thiadiazole-2-amine] | – | < 1000 | – | –
29 | Cc1noc(C)c1-c1cnc2ccc(Nc3nnc(C4CCCC4)s3)nc2c1 [Example 0216] | – | – | – | < 1000
30 | Brc1cnc2ccc(Nc3nnc(C4CCCC4)s3)nc2c1 [Example 0039, N-(7-bromo-1,5-naphthyridin-2-yl)-5-cyclopentyl-1,3,4-thiadiazole-2-amine] | – | < 1000 | – | –
31 | CC(C)(C)OC(=O)N1CCC(c2cnc3ccc(Nc4nnc(C5CCCC5)s4)nc3c2)CC1 [Example 0331, tert-butyl 4-(6-((5-cyclopentyl-1,3,4-thiadiazol-2-yl)amino)-1,5-naphthyridin-3-yl)piperidine-1-carboxylate] | – | – | – | 1000 to 10000
32 | COc1ccc(-c2cnc3ccc(Nc4nnc(C5CCCC5)s4)nc3c2)cc1OC [Example 0203] | – | – | – | < 1000
33 | CCOC(=O)c1nnc(Nc2ccc3ncc(-c4cnn(C)c4)cc3n2)s1 [Example 0230] | – | – | – | < 1000
34 | CC(C)(C)OC(=O)N1CC=C(c2cnc3ccc(Nc4nnc(C5CCCC5)s4)nc3c2)CC1 [Example 0328, tert-butyl 4-(6-((5-cyclopentyl-1,3,4-thiadiazol-2-yl)amino)-1,5-naphthyridin-3-yl)-5,6-dihydropyridine-1(2H)-carboxylate] | – | – | – | < 1000
35 | FC(F)(F)CN1CCN(c2cnc3ccc(Nc4nnc(C5CCCC5)s4)nc3c2)CC1 [Example 0049] | – | 1000 to 10000 | – | –
36 | COc1cc(-c2cnc3ccc(Nc4nnc(C5CCCC5)s4)nc3c2)cc(OC)c1OC [Example 0204] | – | – | – | < 1000
